Positions of bridges follow the written chain, without caps; N, C: chain ends. Non-standard residues stand in square brackets, D forms with d. Residues, ends and D or L forms follow the SMILES beside them. *: point of attachment. 5FAM = O=C1OC2(c3ccc(O)cc3Oc3cc(O)ccc32)c2ccc(C(=O)*)cc21; S5 = C=CCCC[C@](C)(N)C(=O)O; Nle = CCCC[C@H](N)C(=O)O
Legend:
[1] = system: S. typhimurium (14028s) glmS::mCherry strain; assay: Peptide uptake in S. typhimurium by flow cytometry; type: cell-based; settings: 10 μM FAM-labeled peptide, RT
Method: S. typhimurium (14028s) glmS::mCherry strain was grown overnight in LB medium containing 1% glucose. The culture was then diluted to an OD600 of approximately 0.1 into 200 μL of fresh M9 minimal medium supplemented with 0.5% arabinose containing 2 or 10 μM of the indicated 5(6)-carboxyfluorescein-labeled Phd^52–73 peptide. The samples were incubated on the bench at RT for 4 or 22 h with no access to light. Bacteria were then spun down, washed with 1 mL of PBS solution, and finally resuspended in 1 mL of PBS solution for flow cytometry analysis (BD LSR II). Constitutively expressed mCherry was used to discriminate bacteria from the debris in each sample.

[2] = system: E. coli MG1655; assay: Peptide uptake in E. coli by flow cytometry; type: cell-based; settings: 5 μM FAM-labeled peptide in PBS, 2 h, 37 °C, E. coli MG1655, trypan blue quench, mean ± SD
Method: E. coli MG1655 strain was grown in LB medium to an OD600 of around 0.5. Approximately 10^7 cells were washed once with PBS and subsequently incubated with 5 μM of the indicated 5(6)-carboxyfluorescein-labeled Phd^52–73 peptide in PBS (500 μL) for 2 h at 37 °C. Bacteria were washed twice with PBS, and trypan blue (1 mg mL^–1) in PBS was added and incubated for 10 min at RT. Bacteria were washed an additional time with PBS and resuspended in 2 mL of PBS. Flow cytometry analysis was performed using a ThermoFisher Attune NxT and a blue laser (BL1) for fluorescein excitation.

[3] = system: DocSTm (phosphorylation of EF-TuSTm); assay: Dot blot EF-Tu phosphorylation assay; type: biochemical, Salmonella Typhimurium; settings: DocSTm 1 μM, EF-TuSTm 3 μM, peptide 10 μM to 5 nM (3-fold dilutions), 16 h RT, dot blot anti-phosphothreonine; compared at three times the DocSTm concentration; two independent experiments
Method: Samples were prepared in assay buffer [50 mM HEPES (pH 7.5), 25 mM (NH4)2SO4, 2 mM TCEP, 2 mM MgCl2, and 1 mM ATP] with a final concentration of recombinant Doc at 1 μM, recombinant EF-Tu at 3 μM, and varying concentrations of synthetic Phd peptides (final concentrations: 10 μM to 5 nM). EF-Tu (3 μM) in assay buffer was used as a negative control (no Doc and Phd peptide), while EF-Tu (3 μM) with Doc (1 μM) in assay buffer was used as a positive control (no Doc inhibitor). The final sample volume was 10 μL. Samples were incubated for 16 h at RT and subsequently spotted on a nitrocellulose membrane. Phosphorylated EF-Tu was detected by immunodecoration using a rabbit monoclonal antiphosphothreonine antibody (Abcam, ab218195) at 1:2000 dilution (1 h at 4 °C), followed by incubation with a goat antirabbit IgG (H + L) HRP conjugate antibody (Advansta) at 1:10,000 dilution (1 h at RT). Chemiluminescence was developed using the HRP Luminata Kit (Merck, WBLUR0100) and captured with an ImageQuant LAS4000 Western blot imaging system (GE HealthCare). Each peptide was tested in two independent experiments.

[4] = system: DocSTm toxin; settings: DocSTm 5 μM, peptide 50 μM; for Average Tm of DocSTm in the presence of peptide: pH 8.0, average ± SD, replicates 3-48 (Table S3)
Outline: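 Thermal shift with 5 μM recombinant Doc toxin and 50 μM Phd peptides in 20 mM K2HPO4, 50 mM (NH4)2SO4, pH 8.0, SYPRO Orange 3×, ramped 25–95 °C. Tm from Boltzmann fit; ΔTm is peptide-bound minus free DocSTm Tm, triplicates.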

Row | Compound | Inhibition of EF-TuSTm phosphorylation by DocSTm (concentration needed for full inhibition) [3] | Average Tm of DocSTm in the presence of peptide [4] [°C] | also measured
1 | CCCC[C@H](NC(=O)[C@H](Cc1c[nH]c2ccccc12)NC(=O)c1ccc2c(c1)C(=O)OC21c2ccc(O)cc2Oc2cc(O)ccc21)C(=O)N[C@@H](CC(N)=O)C(=O)N[C@@H](CC(N)=O)C(=O)N[C@@H](CCC(=O)O)C(=O)N[C@@H](Cc1ccccc1)C(=O)N[C@@]1(C)CCCC=CCCC[C@@](C)(C(=O)N[C@H](C(=O)N[C@@H](Cc2c[nH]cn2)C(=O)NCC(=O)N[C@@H](CCCNC(=N)N)C(=O)N[C@@H](CCC(N)=O)C(=O)N[C@@H](CC(C)C)C(=O)N[C@@H](CCCNC(=N)N)C(=O)N[C@@H](CCCNC(=N)N)C(=O)N[C@@H](CC(C)C)C(=O)N[C@@H](C)C(=O)N[C@@H](CCCNC(=N)N)C(=O)N[C@@H](CCCCN)C(=O)O)C(C)C)NC(=O)[C@H](CCCC)NC(=O)[C@H]([C@@H](C)CC)NC(=O)[C@H](C)NC1=O [FAM-36] (5FAM-W[Nle]NNEF[S5]AI[Nle][S5]VHGRQLRRLARK-OH; staple 7-11) |  |  | Uptake into S. typhimurium (penetration efficiency) ([1]; 4 or 22 h, M9 minimal medium): 9–30%; Uptake into S. typhimurium (% fluorescent cells) ([1]; 22 h): more than 20%
2 | CCCC[C@H](NC(=O)[C@H](Cc1c[nH]c2ccccc12)NC(=O)c1ccc2c(c1)C(=O)OC21c2ccc(O)cc2Oc2cc(O)ccc21)C(=O)N[C@@H](CCCNC(=N)N)C(=O)N[C@@H](CC(=O)O)C(=O)N[C@@H](CCC(=O)O)C(=O)N[C@@H](Cc1ccccc1)C(=O)N[C@@H](C)C(=O)N[C@@H](C)C(=O)N[C@H](C(=O)N[C@@H](CCCC)C(=O)N[C@@H](CCCNC(=N)N)C(=O)N[C@H](C(=O)N[C@@H](Cc1c[nH]cn1)C(=O)NCC(=O)N[C@@H](CC(N)=O)C(=O)N[C@@H](CCC(=O)O)C(=O)N[C@@H](CC(C)C)C(=O)N[C@@H](CCCNC(=N)N)C(=O)N[C@@H](CCC(=O)O)C(=O)N[C@@H](CC(C)C)C(=O)N[C@@H](C)C(=O)N[C@@H](CC(=O)O)C(=O)N[C@@H](CCCCN)C(=O)O)C(C)C)[C@@H](C)CC [FAM-16] (5FAM-W[Nle]RDEFAAI[Nle]RVHGNELRELADK-OH) |  |  | Cellular uptake into E. coli (penetration efficiency) [2]: 7–14%
3 | CCCC[C@H](NC(=O)[C@H](Cc1c[nH]c2ccccc12)NC(=O)c1ccc2c(c1)C(=O)OC21c2ccc(O)cc2Oc2cc(O)ccc21)C(=O)N[C@@H](CCCNC(=N)N)C(=O)N[C@@H](CC(=O)O)C(=O)N[C@@H](CCC(=O)O)C(=O)N[C@@H](Cc1ccccc1)C(=O)N[C@@H](CCCNC(=N)N)C(=O)N[C@@H](C)C(=O)N[C@H](C(=O)N[C@@H](CCCC)C(=O)N[C@@H](CCCNC(=N)N)C(=O)N[C@H](C(=O)N[C@@H](Cc1c[nH]cn1)C(=O)NCC(=O)N[C@@H](CC(N)=O)C(=O)N[C@@H](CCC(=O)O)C(=O)N[C@@H](CC(C)C)C(=O)N[C@@H](CCCNC(=N)N)C(=O)N[C@@H](CCC(=O)O)C(=O)N[C@@H](CC(C)C)C(=O)N[C@@H](C)C(=O)N[C@@H](CC(=O)O)C(=O)N[C@@H](CCCCN)C(=O)O)C(C)C)[C@@H](C)CC [FAM-19] (5FAM-W[Nle]RDEFRAI[Nle]RVHGNELRELADK-OH) |  |  | Cellular uptake into E. coli (penetration efficiency) [2]: 7–14%
4 | CCCC[C@H](NC(=O)[C@H](Cc1c[nH]c2ccccc12)NC(C)=O)C(=O)N[C@@H](CC(=O)O)C(=O)N[C@@H](CC(N)=O)C(=O)N[C@@H](CCC(=O)O)C(=O)N[C@@H](Cc1ccccc1)C(=O)N[C@@H](C)C(=O)N[C@@H](C)C(=O)N[C@H](C(=O)N[C@@H](CCCC)C(=O)N[C@@H](C)C(=O)N[C@H](C(=O)N[C@@H](Cc1c[nH]cn1)C(=O)NCC(=O)N[C@@H](CCCNC(=N)N)C(=O)N[C@@H](CCC(N)=O)C(=O)N[C@@H](CC(C)C)C(=O)N[C@@H](CCCNC(=N)N)C(=O)N[C@@H](CCCNC(=N)N)C(=O)N[C@@H](CC(C)C)C(=O)N[C@@H](C)C(=O)N[C@@H](CC(N)=O)C(=O)N[C@@H](CCCCN)C(=O)O)C(C)C)[C@@H](C)CC [Peptide 30] (Ac-W[Nle]DNEFAAI[Nle]AVHGRQLRRLANK-OH) | higher than three times the DocSTm concentration | 56.7 ± 2.6 | ΔTm (thermal shift) of DocSTm in the presence of peptide ([4]; SYPRO Orange 3×, 20 mM K2HPO4, 50 mM (NH4)2SO4, pH 8.0, average Tm with peptide minus average Tm of free DocSTm, mean ± SD): ≈ 14 °C
5 | CCCC[C@H](NC(=O)[C@H](Cc1c[nH]c2ccccc12)NC(C)=O)C(=O)N[C@@H](CCCNC(=N)N)C(=O)N[C@@H](CC(N)=O)C(=O)N[C@@H](CCC(=O)O)C(=O)N[C@@H](Cc1ccccc1)C(=O)N[C@@H](CCCNC(=N)N)C(=O)N[C@@H](C)C(=O)N[C@H](C(=O)N[C@@H](CCCC)C(=O)N[C@@H](CCCNC(=N)N)C(=O)N[C@H](C(=O)N[C@@H](Cc1c[nH]cn1)C(=O)NCC(=O)N[C@@]1(C)CCCC=CCCC[C@@](C)(C(=O)N[C@@H](CC(C)C)C(=O)N[C@@H](C)C(=O)N[C@@H](CC(N)=O)C(=O)N[C@@H](CCCCN)C(=O)O)NC(=O)[C@H](CCCNC(=N)N)NC(=O)[C@H](CC(C)C)NC(=O)[C@H](CCC(N)=O)NC1=O)C(C)C)[C@@H](C)CC [Peptide 29] (Ac-W[Nle]RNEFRAI[Nle]RVHG[S5]QLR[S5]LANK-OH; staple 15-19) | required a higher concentration for full DocSTm inhibition | 61.6 ± 0.3 | 
6 | CCCC[C@H](NC(=O)[C@H](Cc1c[nH]c2ccccc12)NC(C)=O)C(=O)N[C@@H](CC(=O)O)C(=O)N[C@@H](CC(N)=O)C(=O)N[C@@H](CCC(=O)O)C(=O)N[C@@H](Cc1ccccc1)C(=O)N[C@@H](C)C(=O)N[C@@H](C)C(=O)N[C@H](C(=O)N[C@@H](CCCC)C(=O)N[C@@H](C)C(=O)N[C@H](C(=O)N[C@@H](Cc1c[nH]cn1)C(=O)NCC(=O)N[C@@H](CCCNC(=N)N)C(=O)N[C@@H](CCC(N)=O)C(=O)N[C@@H](CC(C)C)C(=O)N[C@@H](CCCNC(=N)N)C(=O)N[C@@H](CCCNC(=N)N)C(=O)N[C@@H](CC(C)C)C(=O)N[C@@H](C)C(=O)N[C@@H](CCCNC(=N)N)C(=O)N[C@@H](CCCCN)C(=O)O)C(C)C)[C@@H](C)CC [Peptide 32] (Ac-W[Nle]DNEFAAI[Nle]AVHGRQLRRLARK-OH) | close to the activity of peptide 1 | 62.6 ± 1.2 | 
7 | CCCC[C@H](NC(=O)[C@H](Cc1c[nH]c2ccccc12)NC(C)=O)C(=O)N[C@@H](CCCNC(=N)N)C(=O)N[C@@]1(C)CCCC=CCCC[C@@](C)(C(=O)N[C@H](C(=O)N[C@@H](CCCC)C(=O)N[C@@H](CCCNC(=N)N)C(=O)N[C@H](C(=O)N[C@@H](Cc2c[nH]cn2)C(=O)NCC(=O)N[C@@H](CC(N)=O)C(=O)N[C@@H](CCC(=O)O)C(=O)N[C@@H](CC(C)C)C(=O)N[C@@H](CCCNC(=N)N)C(=O)N[C@@H](CCC(=O)O)C(=O)N[C@@H](CC(C)C)C(=O)N[C@@H](C)C(=O)N[C@@H](CC(=O)O)C(=O)N[C@@H](CCCCN)C(=O)O)C(C)C)[C@@H](C)CC)NC(=O)[C@H](CCCNC(=N)N)NC(=O)[C@H](Cc2ccccc2)NC(=O)[C@H](CCC(=O)O)NC1=O [Peptide 20] (Ac-W[Nle]R[S5]EFR[S5]I[Nle]RVHGNELRELADK-OH; staple 4-8) | required a higher concentration to achieve full inhibition | 60.4 ± 0.4 | 

Source: article PMC10728895, “Stapled Phd Peptides Inhibit Doc Toxin Induced Growth Arrest in Salmonella” (ACS Chemical Biology, 2023)
